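These data come from cells grown in 96-well plates and exposed to compound for 48 hours at five concentrations. TGI denotes the concentration required for complete inhibition of growth.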
How the values were obtained:
Test in all cases: growth of human tumour cells (NCI), 48 h
[1] = tested on: 786-0 renal
[2] = tested on: A498 renal
[3] = tested on: A549 NSCLC
[4] = tested on: ACHN renal
[5] = tested on: HCT-116 colon
[6] = tested on: HCT-15 colon
[7] = tested on: HOP-92 NSCLC
[8] = tested on: K-562 leukemia
[9] = tested on: MALME-3M melanoma
[10] = tested on: OVCAR-4 ovarian
[11] = tested on: OVCAR-5 ovarian
[12] = tested on: RXF 393 renal
[13] = tested on: SF-539 CNS
[14] = tested on: SK-MEL-5 melanoma
[15] = tested on: U251 CNS
[16] = tested on: UO-31 renal

c1ccc(CN[C@]23C4C5CC6C7C5C2C7[C@@](NCc2ccccc2)(C64)N3Cc2ccccc2)cc1 (stereo partly specified)
TGI [1]: > 100 µM | TGI [2]: > 100 µM | TGI [3]: > 100 µM | TGI [4]: > 100 µM | TGI [5]: > 100 µM | TGI [6]: > 100 µM | TGI [7]: > 100 µM | TGI [8]: > 100 µM | TGI [9]: > 100 µM | TGI [10]: > 100 µM | TGI [11]: > 100 µM | TGI [12]: > 100 µM | TGI [13]: > 100 µM | TGI [14]: > 100 µM | TGI [15]: > 100 µM | TGI [16]: > 100 µM

CCCCCc1nnc(NS(=O)(=O)c2ccc(NC(=O)OCC(C)C)cc2)s1
TGI [1]: > 100 µM | TGI [2]: 24.6 µM | TGI [3]: > 100 µM | TGI [4]: > 100 µM | TGI [5]: 53.7 µM | TGI [6]: > 100 µM | TGI [7]: 77.3 µM | TGI [8]: 60.9 µM | TGI [9]: 94.6 µM | TGI [10]: 56.5 µM | TGI [11]: > 100 µM | TGI [12]: > 100 µM | TGI [13]: 64.2 µM | TGI [14]: 63.7 µM | TGI [15]: > 100 µM | TGI [16]: > 100 µM

CSCCCS/C1=C/CCCCCCCCCC1
TGI [1]: > 100 µM | TGI [2]: > 100 µM | TGI [3]: > 100 µM | TGI [4]: > 100 µM | TGI [5]: > 100 µM | TGI [6]: > 100 µM | TGI [7]: > 100 µM | TGI [8]: > 100 µM | TGI [9]: > 100 µM | TGI [10]: > 100 µM | TGI [11]: > 100 µM | TGI [12]: > 100 µM | TGI [13]: > 100 µM | TGI [14]: > 100 µM | TGI [15]: > 100 µM | TGI [16]: > 100 µM

O=C(CCC(=O)CC(O)(C(F)(F)F)C(F)(F)F)CC(O)(C(F)(F)F)C(F)(F)F
TGI [1]: > 100 µM | TGI [2]: 67.4 µM | TGI [3]: > 100 µM | TGI [4]: > 100 µM | TGI [5]: > 100 µM | TGI [6]: > 100 µM | TGI [7]: 49.4 µM | TGI [8]: > 100 µM | TGI [9]: > 100 µM | TGI [10]: > 100 µM | TGI [11]: > 100 µM | TGI [12]: > 100 µM | TGI [13]: > 100 µM | TGI [14]: > 100 µM | TGI [15]: > 100 µM | TGI [16]: 59.3 µM

CCCCCCCC(CC(=O)NC(CO)C(=O)NC(CO)CC(C)C)OC(=O)CC(CCCCCCC)OC(=O)CC(CCCCCCC)OC1OC(C)C(O)C(OC2OC(C)C(O)C(O)C2OC(C)=O)C1O (stereo unspecified)
TGI [1]: 17.6 µM | TGI [2]: 29.4 µM | TGI [3]: 25.9 µM | TGI [4]: 28.9 µM | TGI [5]: 15.1 µM | TGI [7]: 22 µM | TGI [8]: 16.8 µM | TGI [9]: 23.2 µM | TGI [10]: 19.9 µM | TGI [11]: 21.9 µM | TGI [12]: 9.29 µM | TGI [13]: 23.5 µM | TGI [14]: 21.7 µM | TGI [15]: 20.1 µM | TGI [16]: 30.7 µM

C=CC(OC(C)=O)c1ccc(OC(=O)C(C)C)c(OC)c1 (stereo unspecified)
TGI [1]: 4.25 µM | TGI [2]: 31 µM | TGI [3]: 38.7 µM | TGI [4]: 10.4 µM | TGI [5]: 22.5 µM | TGI [6]: 20 µM | TGI [7]: 11.5 µM | TGI [8]: 11.6 µM | TGI [9]: 4.43 µM | TGI [10]: 16.2 µM | TGI [11]: 6.29 µM | TGI [12]: 14.4 µM | TGI [13]: 22.6 µM | TGI [14]: 30.1 µM | TGI [15]: 7.07 µM | TGI [16]: 10.9 µM

CCOC(=O)c1cc(I)c(-c2cc(C)no2)n1C
TGI [1]: > 100 µM | TGI [2]: > 100 µM | TGI [3]: > 100 µM | TGI [4]: > 100 µM | TGI [5]: > 100 µM | TGI [6]: > 100 µM | TGI [7]: > 100 µM | TGI [8]: > 100 µM | TGI [9]: > 100 µM | TGI [10]: 75 µM | TGI [11]: > 100 µM | TGI [12]: 42.8 µM | TGI [13]: > 100 µM | TGI [14]: > 100 µM | TGI [15]: > 100 µM | TGI [16]: > 100 µM

— PubChem BioAssay (NCI)
